Results taken from patent US4987151A, “Triterpene derivatives cholesterol acyltransferase inhibitors and methods of using same” (The Trustees of Columbia University in the City of New York, priority 1989, dated 1991).
Each block holds one molecule with its values, some of them ahead of it.

How the values were obtained:
[1] = test system: rats; conditions: cited from earlier work
[2] = test system: J774 Macrophages; conditions: tissue culture macrophages (J774); cited from earlier work
[3] = test system: ACAT enzyme; experiment: ACAT inhibitory activity, free hydroxyl compound versus ester admixture; format: biochemical
Experimental: The term "effective amount" as used herein is an amount sufficient to inhibit the ACAT enzyme from esterifying cholesterol and fatty acids to cholesteryl esters. The actual amount used varies depending on which compound or composition or admixture is used. For example, the free hydroxyl compound seems to have less activity than an admixture of the stearate and palmitate esters. The actual dosages may vary from about 0.1 mg/kg/day to about 50 mg/kg/day, and may be adjusted by a person of ordinary skill in the art to maximize effectiveness while avoiding side effects and toxicities.

SMILES: CCCCCCCN(Cc1ccc(CC(C)(C)C)cc1)C(=O)Nc1ccc(F)cc1F [CL 277,082]
- effect on cholesterol concentrations in plasma, liver, and aorta [1]: decreasing cholesterol concentrations in plasma, liver, and aorta

SMILES: CCCCCCCCCC[Si](C)(C)CCC(=O)NC(Cc1ccc(C)cc1)c1ccccc1 (stereo not drawn) [Sandoz Compound 58-035]
- effect on foam cell formation [2]: help prevent foam cell formation

- activity relative to admixture of the stearate and palmitate esters [3]: less activity
SMILES: C[C@@H]1[C@H](O)CC[C@]2(C)[C@H]3CC=C4[C@@H]5C[C@](C)(C(=O)O)C[C@H](O)[C@]5(C)CC[C@@]4(C)[C@]3(C)CC[C@@H]12 [free hydroxyl compound]
